According to ChEMBL document CHEMBL1135308, “Non-peptide alpha(v)beta(3) antagonists. Part 4: potent and orally bioavailable chain-shortened RGD mimetics” (Bioorg Med Chem Lett, 2002):

Legend:
[1] = Compound was tested for plasma half life when administered in dog perorally (1 mg/kg) and intravenously (0.2 mg/kg); type: ADME, organism-based, Canis lupus familiaris
Integrin alpha-V/beta-3 = Integrin alpha-V/beta-3 (Homo sapiens, UniProt P05106+P06756); experiment: Inhibition of binding to human alpha V beta3; type: protein-complex assay
Integrin alpha-V/beta-3, sequence (P05106 27-788 limits assumed): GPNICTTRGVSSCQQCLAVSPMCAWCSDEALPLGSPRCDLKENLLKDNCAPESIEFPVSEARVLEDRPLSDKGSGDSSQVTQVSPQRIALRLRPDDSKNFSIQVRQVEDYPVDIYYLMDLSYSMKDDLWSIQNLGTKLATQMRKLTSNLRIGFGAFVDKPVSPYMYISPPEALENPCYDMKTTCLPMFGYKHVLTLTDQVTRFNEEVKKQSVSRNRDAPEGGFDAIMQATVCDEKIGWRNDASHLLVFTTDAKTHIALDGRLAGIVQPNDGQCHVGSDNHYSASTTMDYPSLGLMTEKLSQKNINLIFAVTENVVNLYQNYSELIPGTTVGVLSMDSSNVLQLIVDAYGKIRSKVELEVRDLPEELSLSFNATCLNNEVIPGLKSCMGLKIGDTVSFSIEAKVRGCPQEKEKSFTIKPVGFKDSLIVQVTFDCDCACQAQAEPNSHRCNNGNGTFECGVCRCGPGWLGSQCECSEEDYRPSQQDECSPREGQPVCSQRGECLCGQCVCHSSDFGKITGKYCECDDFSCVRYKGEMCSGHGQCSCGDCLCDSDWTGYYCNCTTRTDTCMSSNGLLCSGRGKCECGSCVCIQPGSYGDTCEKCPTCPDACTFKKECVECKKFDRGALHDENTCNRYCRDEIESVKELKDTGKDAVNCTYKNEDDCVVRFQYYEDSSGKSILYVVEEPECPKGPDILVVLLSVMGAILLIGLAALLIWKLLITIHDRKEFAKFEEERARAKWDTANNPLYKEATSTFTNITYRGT
Integrin alpha-V/beta-3, sequence (P06756 31-889 limits assumed): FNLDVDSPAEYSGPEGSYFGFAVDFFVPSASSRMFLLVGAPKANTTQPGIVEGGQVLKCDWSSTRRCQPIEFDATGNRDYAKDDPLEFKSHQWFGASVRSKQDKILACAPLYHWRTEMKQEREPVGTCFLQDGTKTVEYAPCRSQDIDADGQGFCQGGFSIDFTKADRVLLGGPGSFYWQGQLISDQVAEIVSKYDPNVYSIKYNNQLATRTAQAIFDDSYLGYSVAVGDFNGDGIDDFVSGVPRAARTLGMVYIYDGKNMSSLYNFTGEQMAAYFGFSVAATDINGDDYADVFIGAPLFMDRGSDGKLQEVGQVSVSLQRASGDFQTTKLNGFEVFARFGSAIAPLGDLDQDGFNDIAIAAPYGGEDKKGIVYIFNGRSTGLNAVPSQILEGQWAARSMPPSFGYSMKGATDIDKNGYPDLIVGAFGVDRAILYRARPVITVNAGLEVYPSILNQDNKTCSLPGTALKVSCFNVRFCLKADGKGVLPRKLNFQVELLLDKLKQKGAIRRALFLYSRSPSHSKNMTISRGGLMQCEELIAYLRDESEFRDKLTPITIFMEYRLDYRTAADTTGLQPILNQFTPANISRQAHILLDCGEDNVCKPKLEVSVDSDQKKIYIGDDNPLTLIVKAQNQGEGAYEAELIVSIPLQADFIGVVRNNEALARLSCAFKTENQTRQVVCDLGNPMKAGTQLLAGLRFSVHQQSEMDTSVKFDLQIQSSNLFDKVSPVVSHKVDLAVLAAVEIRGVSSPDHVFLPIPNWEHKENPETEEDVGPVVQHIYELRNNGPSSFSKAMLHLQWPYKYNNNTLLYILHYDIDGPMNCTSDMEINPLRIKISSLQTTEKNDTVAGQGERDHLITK
Integrin alpha-V/beta-3, sequence (P06756 891-1048 limits assumed): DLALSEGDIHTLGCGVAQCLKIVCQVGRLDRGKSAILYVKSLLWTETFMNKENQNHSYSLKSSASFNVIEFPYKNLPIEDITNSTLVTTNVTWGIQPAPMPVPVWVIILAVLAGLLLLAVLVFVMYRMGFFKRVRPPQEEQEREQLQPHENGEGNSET

[2] = Partition coefficient (logP); type: physicochemical; conditions: octanol/water
[3] = Compound was tested for its ability of plasma clearance when administered in dog perorally (1 mg/kg) and intravenously (0.2 mg/kg); type: ADME, organism-based, Canis lupus familiaris; conditions: iv
Homo sapiens = species on record: Homo sapiens; experiment: Inhibitory concentration required for 50% inhibition of the rate of ADP-stimulated platelet aggregation; type: functional, organism-based
[4] = Oral bioavailability in dog (1 mg/kg p.o. and 0.2 mg/kg i.v.); type: ADME, organism-based, Canis lupus familiaris; conditions: in vivo

Structure (SMILES) | half-life [1] [min] | IC50 (Integrin alpha-V/beta-3) [nM] | logP [2] | clearance [3] [mL/min/kg] | IC50 (Homo sapiens) [µM] | bioavailability [4] [%]
O=C(O)C[C@H](NC(=O)CCCCc1ccc2c(n1)NCCC2)c1ccc2nc(O)oc2c1 | 72 | 13.1 | -0.24 | 37 | > 10 | 25
O=C(O)CCNC(=O)CCCCc1ccc2c(n1)NCCC2 | – | 500 | – | – | – | –
O=C(O)C[C@H](NC(=O)CCCCc1ccc2c(n1)NCCC2)c1cncnc1 | 144 | 3.3 | -1.21 | 26 | > 10 | 10
O=C(O)C[C@H](NC(=O)CCCCc1ccc2c(n1)NCCC2)c1ccc2c(c1)OCC2 | 150 | 3 | 0.53 | 1.2 | > 10 | 99
O=C(O)C[C@H](NC(=O)CCCCCc1ccc2c(n1)NCCC2)c1cnc2ccccc2c1 | – | 5.9 | – | – | – | –
O=C(O)C[C@H](NC(=O)CCCCc1ccc2c(n1)NCCC2)c1cccc(F)c1 | 330 | 23 | 0.29 | 2 | > 10 | 81
O=C(O)CCNC(=O)CNC(=O)CCCc1ccc2c(n1)NCCC2 | – | 48 | – | – | – | –
O=C(O)C[C@H](NC(=O)CCCCc1ccc2c(n1)NCCC2)c1ccc2c(c1)OCO2 | 144 | 1.5 | 0.47 | 1.2 | > 10 | 94
O=C(O)C[C@H](NC(=O)CNC(=O)CCCc1ccc2c(n1)NCCC2)c1cnc2ccccc2c1 | – | 0.67 | – | – | – | –
O=C(O)C[C@H](NC(=O)CCCCc1ccc2c(n1)NCCC2)c1cnc2ccccc2c1 | 144 | 1.6 | 0.76 | 5.8 | 4.44 | 65
O=C(O)C[C@H](NC(=O)CCCCCCc1ccc2c(n1)NCCC2)c1cnc2ccccc2c1 | – | 5.8 | – | – | – | –
